From US6344180B1 (BioNebraska, Inc., priority 1999, dated 2002)
Ends that are not written are not given here.

Assays:
pancreas = details: cited from earlier work
[1] = system: insulin secretion and blood glucose; details: infusions in patients with type II diabetes; cited from earlier work
β-cell secretion [2] = test: Part one: dose-response of I.V. bolus GLP-1 compared with glucagon test, peak plasma insulin and C-peptide; format: in vivo, human; details: glucagon test 1 mg I.V. bolus
Description: (§1) The present study was divided into three parts.
(§2) Part one: Six type II diabetic patients (four men and two women, mean (range), age: 56 years (48-67 years); BMI: 31.1 kg/m^2 (27-38 kg/m^2); HbA1c; 9.6% (7,0-12.5%) ) and 6 healthy subjects individually matched for sex, age and BMI (age: 56 years (51-70 years); BMI: 31.6 kg/m^2 (26-37 kg/M^2); HbA1c: 5.5% (5.2-5.8%)). […] Part three 8 type II diabetic patients (seven men and one woman, age: 55 years (49-69 years); BMI: 30.9 kg/m^2 (27-35 kg/M^2); HbA1c: 7.6% (6.3-8.6%)) and 8 healthy subjects (age: 55 years (51-64 years); BMI 31.1 kg/m^2 (25-38 kg/m^2); HbA1c: 5.4% (5.0-6.0%)) participated. Four patients were treated with diet alone while four were treated with diet and oral antidiabetics (sulphonylureas and/or biguanides). […] All type II diabetic patients were diagnosed according to the criteria of National Diabetes Data Group. […] All agreed to participate after oral and written information.
(§3) All oral antidiabetics were discontinued 72 hours before the study.
(§4) Meal test: Venous blood was drawn 15, 10 and 0 min before and 15, 30, 45, 60, 75, 90, 120, 150 and 180 minutes after ingestion of a standard breakfast meal. […] The peptide was dissolved in sterilized water containing 2% human serum albumin (Albumin Nordisk, Novo Nordisk, Bagsvaerd, Denmark, guaranteed to be free of hepatitis-B surface antigen and human immunodeficiency virus antibodies) and subjected to sterile filtration. Appropriate amounts of peptide for each experimental subject were dispensed into glass ampoules and stored frozen under sterile conditions until the day of the experiment. Part two: β-cell function was examined on 3 different days. […] Fifteen minutes later plasma glucose was elevated to 15 mmol/l by intravenous glucose (50% w/v) administration as described above.
(§5) Plasma glucose concentrations were measured during the experiments using a glucose oxidase method with a Glucose Analyzer (Yellow Springs Instrument Model 23 A, USA). Plasma insulin concentrations were measured according to Albano et al using standards of human insulin and antibody code no. 2004. The sensitivity of the assay is approximately 3 pmol/l, the intraassay coefficient of variation is 8% at 48 pmol/l. C-peptide concentrations were determined by radioimmunoassay (RIA) as described by Heding et al employing the polyclonal antibody M1230[12]. […] The detection limit is approximately 60 pmol/l, the intra-assay coefficient of variance is 5%, interassay coefficient of variation is 7.3%. […] The assay has a detection limit of 5 pmol/l. […] The detection limit is 1 pmol/l.

β-cell secretion [3] = test: Part two: 2.5 nmol GLP-1, glucagon test, combined glucose+GLP-1 injection and s.c. GLP-1, peak plasma insulin and C-peptide; format: in vivo, human; details: glucagon test 1 mg I.V.
Description: as §1, §2, §3, §4, §5

β-cell secretion [4] = test: Part three: combined glucose+GLP-1 injection vs hyperglycemic clamp with L-arginine, maximal secretory capacity; format: in vivo, human; details: for Incremental C-peptide response (peak minus concentration at time of injection) / Incremental insulin response (peak minus concentration at time of injection): hyperglycemic clamp 30 mmol/l, 5 g L-arginine bolus at 45 min; for Absolute mean peak C-peptide concentration / Absolute mean peak insulin concentration: hyperglycemic clamp with 5 g L-arginine
Description: as §1, §2, §3
During the hyperglycemic clamp, glucose (50% w/v) was injected at time zero to increase the plasma glucose to 30 mmol/l (calculated as follows: (30 mmol/l−fasting plasma glucose)×35 mg glucose×weight in kilogram). Plasma glucose was kept at 30 mmol/l by continuous infusion of glucose, which was adjusted according to a bedside measurement of plasma glucose ever 5 minutes. At 45 minutes, 5 g L-arginine monohydrochloride was injected as a bolus during 30 seconds. Blood was sampled 15, 10 and 0 minutes before and 5, 10, 15, 20, 25, 30, 35, 40, 45, 47, 48, 49, 51, 53, 55, 60, 65, 70, 75 and 90 minutes after elevation of plasma glucose. The L-arginine was dissolved in 50 ml of sterilized water and dispensed into glass ampoules and stored at 4° C. until the day of the experiment. Blood was sampled into fluoride tubes for measurement of glucose and into chilled EDTA tubes with aprotinin (500 KIU/ml blood; Trasylol, Bayer, Leverkusen, Germany) for peptide analyses. Tubes were immediately cooled on ice and centrifuged within 20 minutes at 4° C., and plasma was stored at −20° C. until analysis.
as §5

Glu Gly Thr Phe Thr Ser Asp Val Ser Ser Tyr Leu Glu Gly Gln Ala Ala Lys Glu Phe Ile Ala Trp Leu Val Lys Gly Arg (NH2) (EGTFTSDVSSYLEGQAAKEFIAWLVKGR-NH2; listed as Homo sapiens) [SEQ. ID NO:6]
Stimulation of production or release of insulin from the pancreas (pancreas): do not stimulate

glucose-dependent insulinotropic polypeptide [GIP]
Effect on insulin secretion and blood glucose [1]: little or no effect

Glu Gly Thr Phe Thr Ser Asp Val Ser Ser Tyr Leu Glu Gly Gln Ala Ala Lys Glu Phe Ile Ala Trp Leu Val Lys Gly Arg Gly (EGTFTSDVSSYLEGQAAKEFIAWLVKGRG; listed as Homo sapiens) [SEQ. ID NO:5]
Stimulation of production or release of insulin from the pancreas (pancreas): do not stimulate

glucagon
Peak C-peptide concentration (mean ± SEM) (β-cell secretion [2]; healthy controls): 1874 ± 158 pmol/L
Peak insulin concentration (mean ± SEM) (β-cell secretion [2]; healthy controls): 360 ± 39 pmol/L
Peak C-peptide concentration (mean ± SEM) (β-cell secretion [2]; type 2 diabetic patients): 1643 ± 178 pmol/L
Peak insulin concentration (mean ± SEM) (β-cell secretion [2]; type 2 diabetic patients): 265 ± 45 pmol/L
Peak C-peptide concentration (mean ± SEM) (β-cell secretion [3]; healthy controls): 1995 ± 99 pmol/L
Peak insulin concentration (mean ± SEM) (β-cell secretion [3]; healthy controls): 420 ± 61 pmol/L
Peak C-peptide concentration (mean ± SEM) (β-cell secretion [3]; type 2 diabetic patients): 1780 ± 160 pmol/L
Peak insulin concentration (mean ± SEM) (β-cell secretion [3]; type 2 diabetic patients): 329 ± 50 pmol/L

Cl.N=C(N)NCCC[C@H](N)C(=O)O [L-arginine, L-arginine monohydrochloride]
Incremental C-peptide response (peak minus concentration at time of injection) (β-cell secretion [4]; healthy subjects): 3391 ± 388 pmol/L
Incremental insulin response (peak minus concentration at time of injection) (β-cell secretion [4]; healthy subjects): 1921 ± 338 pmol/L
Incremental C-peptide response (peak minus concentration at time of injection) (β-cell secretion [4]; type II diabetic patients): 1360 ± 250 pmol/L
Incremental insulin response (peak minus concentration at time of injection) (β-cell secretion [4]; type II diabetic patients): 628 ± 226 pmol/L
Absolute mean peak C-peptide concentration (β-cell secretion [4]; healthy subjects): 6047 ± 652 pmol/L
Absolute mean peak insulin concentration (β-cell secretion [4]; healthy subjects): 2384 ± 452 pmol/L
Absolute mean peak C-peptide concentration (β-cell secretion [4]; type II diabetic patients): 3043 ± 508 pmol/L
Absolute mean peak insulin concentration (β-cell secretion [4]; type II diabetic patients): 816 ± 268 pmol/L
